Literature values, collected in US8155888B2, “Method and apparatus for assessing polypeptide aggregation” (Cambridge University Technical Services Ltd., priority 2003, dated 2012).
Read-outs that look alike come from different tables or passages of the source. Where no end group is shown, it is not given here.

What was measured:
[1] = not given; remark: listed apart in the source
[2] = not given; remark: listed apart in the source
[3] = mutant versus wild type; growth phase only; from literature data
[4] = Table 1, neutral pH, partition coefficients from water to octanol
[5] = Table 5, neutral pH, partition coefficients from water to octanol
[6] = Table 1, normalised from 0 (high) to 1 (low)
[7] = Table 5, normalized from 0 (high) to 1 (low)

| hydrophobicity [4] [kcal/mol] | hydrophobicity [5] [kcal/mol] | β-sheet propensity [1, 6] | β-sheet propensity [1, 7] | charge ([2]; Table 1, neutral pH) | charge ([2]; Table 5, neutral pH) | Molecule | observed ln(νmut/νwt) [3] | other results |
| --- | --- | --- | --- | --- | --- | --- | --- | --- |
| -0.0598 | -0.25 | 0.25 | 0.25 | 0 | 0 | N[C@@H](CS)C(=O)O [Cys (C)] |  |  |
|  |  |  |  |  |  | I26A: single-point mutation I26A of amylin (KCNTATCATQRLANFLVHSSNNFGAALSSTNVGSNTY; ends and bridges not checked; cysteine pairing not given here; UniProt P10997 34-70, looked up, variant I26A) | −2.39 |  |
|  |  |  |  |  |  | A21G: A21G mutation of Aβ (amyloid-β peptide) | −0.07 |  |
| -0.435 | -1.82 | 0.10 | 0.10 | 0 | 0 | CC[C@H](C)[C@H](N)C(=O)O [Ile (I)] |  |  |
|  |  |  |  |  |  | F19T: F19T mutation of Aβ (amyloid-β peptide) | −2.48 |  |
|  |  |  |  |  |  | D23N: D23N mutation of Aβ (amyloid-β peptide) | 3.97 |  |
|  |  | 0.35 | 0.35 | −1 | −1 | N[C@@H](CCC(=O)O)C(=O)O [Glu (E), glutamic acid] |  |  |
|  |  |  |  |  |  | G24A: single-point mutation G24A of amylin (KCNTATCATQRLANFLVHSSNNFAAILSSTNVGSNTY; ends and bridges not checked; cysteine pairing not given here; UniProt P10997 34-70, looked up, variant G24A) | −0.03 |  |
| 0.153 | 0.64 | 0.37 | 0.37 | 0 | 0 | N[C@@H](Cc1c[nH]cn1)C(=O)O [His (H), histidine] |  | hydrophobicity (Table 1, value in brackets, pH lower than 6.0, histidine positively charged): 0.686 kcal/mol; hydrophobicity (Table 5, value in brackets, pH lower than 6.0, histidine positively charged): 2.87 kcal/mol; charge ([2]; Table 1, value in brackets, pH lower than 6.0): +1; charge ([2]; Table 5, value in brackets, pH lower than 6.0): +1 |
|  |  |  |  |  |  | E22Q: E22Q mutation of Aβ (amyloid-β peptide) | 2.92 |  |
| -0.0932 | -0.39 | 0.47 | 0.47 | 0 | 0 | C[C@H](N)C(=O)O [Ala (A)] |  |  |
| -0.543 | -2.27 | 0.13 | 0.13 | 0 | 0 | N[C@@H](Cc1ccccc1)C(=O)O [Phe (F), phenylalanine] |  |  |
| -0.351 | -1.47 | 0.11 | 0.11 | 0 | 0 | N[C@@H](Cc1ccc(O)cc1)C(=O)O [Tyr (Y)] |  |  |
| 0.911 | 3.81 | 0.72 | 0.72 | −1 | −1 | N[C@@H](CC(=O)O)C(=O)O [Asp (D), aspartic acid] |  |  |
|  |  |  |  |  |  | E22K: E22K mutation of Aβ (amyloid-β peptide) | 0.92 |  |
| -0.229 | -0.96 | 0.26 | 0.26 | 0 | 0 | CSCC[C@H](N)C(=O)O [Met (M)] |  |  |
| 0.457 | 1.91 | 0.40 | 0.40 | 0 | 0 | NC(=O)C[C@H](N)C(=O)O [Asn (N)] |  |  |
|  |  |  |  |  |  | F23A: single-point mutation F23A of amylin (KCNTATCATQRLANFLVHSSNNAGAILSSTNVGSNTY; ends and bridges not checked; cysteine pairing not given here; UniProt P10997 34-70, looked up, variant F23A) | −2.65 |  |
|  |  |  |  |  |  | S20G: S20G mutation of amylin (KCNTATCATQRLANFLVHSGNNFGAILSSTNVGSNTY; ends and bridges not checked; cysteine pairing not given here; UniProt P10997 34-70, looked up, variant S20G) | 1.01 |  |
|  |  |  |  |  |  | L27A: single-point mutation L27A of amylin (KCNTATCATQRLANFLVHSSNNFGAIASSTNVGSNTY; ends and bridges not checked; cysteine pairing not given here; UniProt P10997 34-70, looked up, variant L27A) | −0.93 |  |
|  |  |  |  |  |  | N22A: single-point mutation N22A of amylin (KCNTATCATQRLANFLVHSSNAFGAILSSTNVGSNTY; ends and bridges not checked; cysteine pairing not given here; UniProt P10997 34-70, looked up, variant N22A) | 0.69 |  |
| 0.296 | 1.24 | 0.30 | 0.30 | 0 | 0 | N[C@@H](CO)C(=O)O [Ser (S), serine] |  |  |
|  | -1.30 | 0.13 | 0.13 | 0 | 0 | CC(C)[C@H](N)C(=O)O [Val (V)] |  |  |
|  |  |  |  |  |  | E22G: E22G mutation of Aβ (amyloid-β peptide) | 2.03 |  |
| 0.311 | 1.30 | 0.34 | 0.34 | 0 | 0 | NC(=O)CC[C@H](N)C(=O)O [Gln (Q)] |  |  |
| -0.237 | -0.99 |  |  | 0 | 0 | O=C(O)[C@@H]1CCCN1 [Pro (P), proline] |  |  |
| 0.239 | 1.00 | 0.06 | 0.06 | 0 | 0 | C[C@@H](O)[C@H](N)C(=O)O [Thr (T)] |  |  |

| Molecule | hydrophobicity [4] [kcal/mol] | hydrophobicity [5] [kcal/mol] | β-sheet propensity [1, 6] | β-sheet propensity [1, 7] | charge ([2]; Table 1, neutral pH) | charge ([2]; Table 5, neutral pH) | observed ln(νmut/νwt) [3] | other results |
| --- | --- | --- | --- | --- | --- | --- | --- | --- |
| NCC(=O)O [Gly (G), glycine] | 0 | 0.00 | 0.60 | 0.60 | 0 | 0 |  |  |
